This note sets out measurements from BindingDB's records for doi:10.1021/jm00096a016 (Kyowa Hakko Kogyo, 1992).

Each structure is given as a SMILES string.

The nature of experiment [1]: Inhibition of the thromboxane A2 receptor assayed by binding to guinea pig platelets using [3H]U-46619 as radioligand.
Experiment [2] in a line: Compound was tested for its binding affinity at Thromboxane A2 receptor by measuring its ability to displace [3H]U-46619 from guinea pig platelets.
The nature of experiment [3]: Binding affinity at TXA2 receptor by measuring its ability to displace [3H]U-46619 from guinea pig platelets.
Experiment [4] deals with Thromboxane-A synthase (Bos taurus). The experiment can be described thus: Inhibitory effect against thromboxane A2 synthase binding to bovine platelets.
Experiment [5] is described as follows: Compound was tested for its inhibitory activity against TXA2 synthase obtained from bovine platelet microsomes.

For orientation: Ki means a dissociation constant, usually derived from enzyme kinetics or from competition with a known ligand. Take `Cc1ccc(S(=O)(=O)NCCSC2c3ccccc3COc3ccc(C(=O)O)cc32)cc1` (stereo not given): the Ki in experiment [1] and in experiment [2] was 27 nM each time. As for `O=C(O)c1ccc2c(c1)C(SCCNC(=O)c1ccccc1)c1ccccc1CO2` (stereo not given), the Ki in experiment [1] is 44 nM.

For the compound `O=C(O)c1ccc2c(c1)C(SCCNC(=S)NCc1ccccc1)c1ccccc1CO2` (stereo not given), the Ki in experiment [1] and in experiment [3] was 6.1 nM in each case.

Turning to `COc1ccc(S(=O)(=O)NCCSC2c3ccccc3COc3ccc(C(=O)O)cc32)cc1` (stereo not given), affinity in experiment [2] was put at a Ki of 17 nM. Compound `O=C(NCCSC1c2ccccc2COc2ccc(C(=O)O)cc21)OCc1ccccc1` (stereo not given) displayed a Ki in experiment [1] of 7.7 nM.

With `O=C(O)c1ccc2c(c1)C(SCCNS(=O)(=O)c1cccc([N+](=O)[O-])c1)c1ccccc1CO2` (stereo not given), the Ki in experiment [1] and in experiment [3] was 14 nM throughout. As to `O=C(O)c1ccc2c(c1)C(SCCNS(=O)(=O)c1cccs1)c1ccccc1CO2` (stereo not given), the Ki in experiment [1] and in experiment [2] was 5.7 nM in each case.

For the compound `O=C(O)c1ccc2c(c1)C(SCCNS(=O)(=O)c1ccccc1)c1cc(Br)ccc1CO2` (stereo not given), the Ki in experiment [1] and in experiment [2] was 6.8 nM throughout. Regarding `O=C(O)c1ccc2c(c1)C(SCCNC(=O)c1ccccc1O)c1ccccc1CO2` (stereo not given), the Ki in experiment [1] and in experiment [2] was 5.1 nM throughout.

For the compound `O=C(O)c1ccc2c(c1)C(SCCNS(=O)(=O)c1ccccc1[N+](=O)[O-])c1ccccc1CO2` (stereo not given), the Ki in experiment [1] and in experiment [2] was 15 nM in each case. As to `O=C(O)c1ccc2c(c1)C(SCCNS(=O)(=O)c1ccc(C(F)(F)F)cc1)c1ccccc1CO2` (stereo not given), the Ki in experiment [1] and in experiment [2] was 20 nM in each case.

Consider `O=C(O)c1ccc2c(c1)C(SCCNS(=O)(=O)c1ccccc1)c1ccccc1C=C2` (stereo not given), for which the Ki in experiment [1] and in experiment [2] was 25 nM throughout.

In the case of `COc1cc(C(=O)NCCSC2c3ccccc3COc3ccc(C(=O)O)cc32)cc(OC)c1OC` (stereo not given), the Ki in experiment [1] and in experiment [3] was 92 nM throughout. Take `O=C(O)c1ccc2c(c1)C(SCCNS(=O)(=O)c1ccc3ccccc3c1)c1ccccc1CO2` (stereo not given): the Ki in experiment [1] and in experiment [3] was 14 nM throughout. Take `O=C(O)c1cccc(C(SCCNS(=O)(=O)c2ccccc2)c2ccccc2)c1` (stereo not given): the Ki in experiment [1] and in experiment [3] was 77 nM in each case. Take `O=C(O)c1ccc2c(c1)C(SCCNS(=O)(=O)c1ccccc1)c1ccccc1CC2` (stereo not given): the inhibition constant (Ki) in experiment [1] and in experiment [3] was 30 nM in each case. Usually IC50 stands for the midpoint of a concentration-inhibition curve. A high value points to weaker potency. For the compound `O=C(NCCSC1c2ccccc2COc2ccc(C(=O)O)cc21)Nc1ccccc1` (stereo not given), the IC50 in experiment [4] and in experiment [5] was 830 nM in each case. As to `O=C(O)c1ccc2c(c1)OCc1ccccc1C2SCCNS(=O)(=O)c1ccccc1` (stereo not given), the IC50 in experiment [4] and in experiment [5] was 370 nM in each case. Regarding `Cc1ccsc1C(=O)NCCSC1c2ccccc2COc2ccc(C(=O)O)cc21` (stereo not given), the inhibitory constant (Ki) in experiment [1] and in experiment [3] was 10 nM throughout.
